Experimental findings from ChEMBL document CHEMBL1132902, “Bicyclic nucleoside inhibitors of Varicella-Zoster Virus (VZV): the effect of a terminal halogen substitution in the side-chain” (Bioorg Med Chem Lett, 2000) are described below.

The source made the active and inactive calls. The calls are words filed in the database; no cut-off is given here.

The subject of assay [1] is Human immunodeficiency virus 1. Description: In vitro activity of compound against HIV-1; Not active. In kind it is functional, organism-based.
For assay [2], the system named is Human alphaherpesvirus 3. Briefly: The compound was tested for its effective concentration required to reduce virus plaque formation by using Varicella-Zoster virus YS strain. In kind it is functional, organism-based.
Assay [3] relates to Human alphaherpesvirus 3. Description: The compound was tested for its effective concentration required to reduce virus plaque formation by using Varicella-Zoster virus OKA strain. In kind it is functional, organism-based.
In assay [4] the test system is Human alphaherpesvirus 2. Briefly: In vitro activity against Herpes simplex virus-2. Type of assay: functional, organism-based.
In assay [5] the test system is Human alphaherpesvirus 1. Briefly: In vitro activity against Herpes simplex virus-1; Not active. In kind it is functional, organism-based.
In assay [6] the test system is Human alphaherpesvirus 3. Briefly: The compound was tested for its effective concentration required to reduce virus plaque formation by using TK (thymidine kinase -deficient)-Varicella-Zoster virus 07/1 strain. Type of assay: functional, organism-based.
The subject of assay [7] is Human alphaherpesvirus 3. Briefly: The compound was tested for its effective concentration required to reduce virus plaque formation by using TK (thymidine kinase -deficient) -Varicella-Zoster virus YS/R strain. In kind it is functional, organism-based.
Assay [8] can be described thus: The compound was tested for its minimal cytotoxic concentration required to alter microscopically detectable cell morphology. In kind it is functional.
The test system of assay [9] is Cytomegalovirus. Briefly: In vitro activity against Cytomegalovirus virus. In kind it is functional, organism-based.
For assay [10], the system named is HEL. Briefly: The compound was tested for cytotoxic concentration required to inhibit Hel cell growth by 50%. Type of assay: functional. The note with it: Homo sapiens.
Assay [11] has as its system Human alphaherpesvirus 3. Description: The compound was tested for its effective concentration required to reduce virus plaque formation by using TK- (thymidine kinase -deficient)-Varicella-Zoster virus 07/1 strain. Type of assay: functional, organism-based.
Assay [12] has as its system Human alphaherpesvirus 2. Description: Compound was tested (in vitro) against Herpes simplex virus-2; Not active. In kind it is functional, organism-based.
Assay [13] deals with Cytomegalovirus. Briefly: Compound was tested (in vitro) against Cytomegalovirus virus or HIV-1; Not active. In kind it is functional, organism-based.
Assay [14] deals with Human alphaherpesvirus 2. Briefly: Compound was tested (in vitro) against Herpes simplex virus-2. In kind it is functional, organism-based.
Assay [15] has as its system Cytomegalovirus. Briefly: Compound was tested (in vitro) against Cytomegalovirus virus or HIV-1. Type of assay: functional, organism-based.

Broadly, the EC50 is the concentration needed to bring the measured effect to its halfway point. A high value points to a need for much substance. As a reminder, the CC50 is the concentration at which the toxic effect on the cells reaches its halfway point. As to `O=c1nc2oc(CCCCCCCCCF)cc2cn1[C@H]1C[C@H](O)[C@@H](CO)O1`, the outcome in assay [1], in assay [4], in assay [5] and in assay [9] was inactive. Moreover, the EC50 in assay [2] is 0.014 µM; in assay [3], 0.022 µM; in assay [6], more than 20 µM; in assay [7], more than 20 µM. The molecule also came in with an MCC in assay [8] of more than 50 µM. Besides, half-maximal cytotoxicity in assay [10] (CC50) was put at 200 µM.

On to `O=c1[nH]c(=O)n([C@H]2C[C@H](O)[C@@H](CO)O2)cc1C#CCCCCCCCCCF`, for which the EC50 in assay [2] came to 22 µM; in assay [3], 26 µM; in assay [7] it was 23 µM; in assay [11] it was 33 µM. The MCC in [8] was found to be 200 µM. Moreover, in [10], the midpoint of cytotoxicity, the CC50, lay at 116 µM.

For the molecule `O=c1nc2oc(CCCCCCCCCI)cc2cn1[C@H]1C[C@H](O)[C@@H](CO)O1`, the outcome in assay [1], in assay [12] and in [13] was inactive. Further, the EC50 was 0.034 µM in assay [2], 0.061 µM in assay [3], more than 50 µM in assay [6] and more than 50 µM in assay [7]. In assay [8], the MCC was determined as 50 µM. This molecule also gave a CC50 in assay [10] of more than 200 µM.

Turning to `O=c1[nH]c(=O)n([C@H]2C[C@H](O)[C@@H](CO)O2)cc1C#CCCCCCCCCCBr`, the concentration giving a half-maximal response (EC50) worked out at 0.8 µM in assay [2], 1.1 µM in assay [3], 16 µM in assay [6] and 2.5 µM in assay [7]. This molecule showed an MCC in assay [8] of 50 µM. In assay [10], the CC50 came out at 97 µM.

Consider `CCCCCCCCCCc1cc2cn([C@H]3C[C@H](O)[C@@H](CO)O3)c(=O)nc2o1`, for which the concentration for a half-maximal effect (EC50) in [6] and in [7] was more than 50 µM each time. For the same molecule, the MCC in [8] was more than 50 µM. In assay [10], the CC50 was more than 50 µM.

In the case of `O=c1[nH]c(=O)n([C@H]2C[C@H](O)[C@@H](CO)O2)cc1C#CCCCCCCCCCCl`, the EC50 in [2] is 2.8 µM; in assay [3], 3.6 µM; in [6], 10 µM; in [7], 9.6 µM. Moreover, the MCC in [8] is 200 µM. The molecule also yielded a CC50 in assay [10] of 74 µM.

As for `O=c1nc2oc(CCCCCCCCCBr)cc2cn1[C@H]1C[C@H](O)[C@@H](CO)O1`, the outcome in assay [1], in assay [12] and in assay [13] was inactive. Besides, the EC50 is 0.031 µM in [2], 0.026 µM in [3], more than 50 µM in [6] and 50 µM in assay [7]. For the same molecule, the MCC in assay [8] was more than 200 µM. The CC50 in assay [10] was more than 50 µM.

In turn, `Nc1nc2c(ncn2COCCO)c(=O)[nH]1` [ACYCLOVIR] came in with an MCC in assay [8] of more than 200 µM. Further, the CC50 in assay [10] was more than 200 µM.

As to `O=c1[nH]c(=O)n([C@H]2C[C@H](O)[C@@H](CO)O2)cc1C#CCCCCCCCCCI`, the EC50 amounted to 6 µM in assay [2], 13 µM in [3], 36 µM in assay [6] and 31 µM in assay [7]. Further, in [8], the MCC was more than 50 µM. This molecule also displayed a half-maximal cytotoxic concentration (CC50) in assay [10] of 68 µM.

Take `O=c1nc2oc(CCCCCCCCCCl)cc2cn1[C@H]1C[C@H](O)[C@@H](CO)O1`: the result in [1], in assay [14] and in assay [15] was inactive. The EC50 in assay [2] amounted to 0.012 µM; in [3], 0.007 µM; in assay [6] it was 15 µM; in [7], 13 µM. For the same molecule, the MCC in assay [8] is more than 200 µM. For the same molecule, the CC50 in assay [10] amounted to 200 µM.
